Measurements: patent US8815909B2, “Diaminocyclohexane compounds and uses thereof” (Bristol-Myers Squibb Company, priority 2011, dated 2014)

The compounds below were run against T1, human Y4 receptor (Homo sapiens, UniProt P50391) (assay: NPY4 cAMP HTRF Agonist Assay (inhibitory cAMP assay, Gi activation by Y4 agonism)). Conditions: TABLE 2, R2 is Phenyl-CN; read-out: hY4 CAMP EC50.
T1 construct: expressed in transfected cells
Format: cell-based
In short: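 Y4 agonism read as lowered forskolin-stimulated cAMP (HTRF, 1 h detection at room temperature). Stable human Y4 CHO clone, 5000 cells/well, incubated 30 min at room temperature with compounds plus forskolin and IBMX in PBS.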

T1 sequence (P50391 whole entry): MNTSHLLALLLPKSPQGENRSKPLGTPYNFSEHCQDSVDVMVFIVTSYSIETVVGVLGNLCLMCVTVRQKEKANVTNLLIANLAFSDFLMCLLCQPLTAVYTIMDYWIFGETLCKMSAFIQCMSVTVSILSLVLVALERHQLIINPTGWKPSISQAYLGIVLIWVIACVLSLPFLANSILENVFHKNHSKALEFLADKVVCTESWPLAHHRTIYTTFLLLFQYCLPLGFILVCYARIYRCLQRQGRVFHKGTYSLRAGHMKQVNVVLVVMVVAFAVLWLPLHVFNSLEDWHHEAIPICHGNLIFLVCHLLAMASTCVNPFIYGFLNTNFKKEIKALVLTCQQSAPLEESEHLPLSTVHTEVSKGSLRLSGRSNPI

EC50 [nM]	SMILES
147	COC(=O)c1cccn1-c1ccnc(N[C@@H]2CCCC[C@H]2N[C@H]2CCCN(c3ccc(C#N)cc3)C2)c1 [Example 204]
12	N#Cc1ccc(N2CCC[C@H](N[C@@H]3CCCC[C@H]3Nc3cc(-c4cccc(N)c4)ccn3)C2)cc1 [Example 279]

Same assay, conditions: TABLE 3, R2 is Phenyl-NO2; read-out: hY4 CAMP EC50

EC50 [nM]	SMILES
122	O=[N+]([O-])c1ccc(N2C[C@@H]3C[C@H](N[C@@H]4CCCC[C@H]4Nc4cc(Cl)ncn4)[C@H]2C3)cc1 [Example 295]

Same assay, conditions: TABLE 4, R2 is Pyridinyl-CN; read-out: hY4 CAMP EC50

EC50 [nM]	SMILES
141	C[C@]1(N[C@@H]2CCCC[C@H]2Nc2cc(-c3cccc(C(N)=O)c3)ccn2)CCCN(c2ccc(C#N)nc2)C1 [Example 306]
3	C[C@]1(N[C@@H]2CCCC[C@H]2Nc2ncc(-c3cccc(C(N)=O)c3)o2)CCCN(c2ccc(C#N)nc2)C1 [Example 304]
23	C[C@]1(N[C@@H]2CCCC[C@H]2Nc2ncc(-c3cccc(C(N)=O)c3)o2)CCCN(c2ccc(C#N)cn2)C1 [Example 298]
221	N#Cc1ccc(N2C[C@@H]3C[C@H](N[C@@H]4CCCC[C@H]4Nc4ncc(-c5cccc(C(N)=O)c5)o4)[C@H]2C3)cn1 [Example 303]
68	CC(O)c1cccc(-c2ccnc(N[C@@H]3CCCC[C@H]3NC3CCCN(c4ccc(C#N)nc4)C3)c2)c1 (some centres unmarked) [Example 313]
165	N#Cc1ccc(N2CCC[C@H](N[C@@H]3CCCC[C@H]3Nc3cc(-c4cccc(C(N)=O)c4)ccn3)C2)cn1 [Example 316]

Same assay, conditions: TABLE 5, R2 is Pyridinyl-CF3; read-out: hY4 CAMP EC50

EC50 [nM]	SMILES
5	COC(=O)Nc1cccc(-c2cnc(N[C@@H]3CCCC[C@H]3N[C@H]3CCCN(c4ccc(C(F)(F)F)nc4)C3)o2)c1 [Example 331]
1	NC(=O)c1cccc(-c2cnc(N[C@@H]3CCCC[C@H]3N[C@H]3CCCN(c4ccc(C(F)(F)F)nc4)C3)o2)c1 [Example 320]

Same assay, conditions: TABLE 7, R2 is Pyridinyl-oxadiazole-CH3; read-out: hY4 CAMP EC50

EC50 [nM]	SMILES
0.2	Cc1nc(-c2ccc(N3CCC[C@H](N[C@@H]4CCCC[C@H]4Nc4ncc(-c5cccc(C(N)=O)c5)o4)C3)nc2)no1 [Example 396]
14	COC(=O)c1cccc(-c2cnc(N[C@@H]3CCCC[C@H]3N[C@H]3CCCN(c4ccc(-c5noc(C)n5)nc4)C3)o2)c1 [Example 383]

Same assay, conditions: human Y4 receptor, cAMP; read-out: hY4 CAMP EC50

EC50 [nM]	SMILES
18	Cc1nnc(-c2ccc(N3CCCC(N[C@@H]4CCCC[C@H]4Nc4cc(-c5cncc6ccccc56)ccn4)C3)cc2)o1 (some centres unmarked) [Example 371]
1	Cc1nnc(-c2ccc(N3CCC[C@H](N[C@@H]4CCCC[C@H]4Nc4cc(-c5cccc(C(N)=O)c5)ccn4)C3)cc2)o1 [Example 349]
4	CNC(=O)Nc1cccc(-c2cnc(N[C@@H]3CCCC[C@H]3N[C@H]3CCCN(c4cnc(C(F)(F)F)nc4)C3)o2)c1 [Example 428]
1	NC(=O)c1cccc(-c2cnc(N[C@@H]3CCCC[C@H]3N[C@H]3CCCN(c4ccc(OC(F)(F)F)cc4)C3)o2)c1 [Example 459]
4	COC(=O)Nc1cccc(-c2cnc(N[C@@H]3CCCC[C@H]3N[C@H]3CCCN(c4ccc5ncnn5c4)C3)o2)c1 [Example 483]
58	CNC(=O)c1cccc(-c2cnc(N[C@@H]3CCCC[C@H]3N[C@H]3CCCN(c4ccc5ncnn5c4)C3)o2)c1 [Example 485]
225	Cc1noc(-c2ccc(N3CCC[C@H](N[C@@H]4CCCC[C@H]4Nc4ncc(-c5ccc(OC(F)(F)F)cc5)o4)C3)cc2)n1 [Example 355]
378	N#Cc1cc(N2C[C@@H]3C[C@H](N[C@@H]4CCCC[C@H]4Nc4ncc(-c5ccc(OC(F)(F)F)cc5)o4)[C@H]2C3)ncn1 [Example 444]
320	CC(C)(C)OC(=O)Nc1cccc(-c2cnc(N[C@@H]3CCCC[C@H]3N[C@H]3CCCN(c4cnc(C(F)(F)F)nc4)C3)o2)c1 [Example 410]
9	Cc1nnc(-c2ccc(N3CCCC(N[C@@H]4CCCC[C@H]4Nc4cc(-c5ccccc5F)ccn4)C3)cc2)o1 (some centres unmarked) [Example 367]

Continued, compound first:

SMILES	EC50 [nM]
Cn1nnnc1-c1ccc(N2CCC[C@H](N[C@@H]3CCCC[C@H]3Nc3cc(-c4cccc(C(N)=O)c4)ccn3)C2)cc1 [Example 508]	21
O=C(NC1CC1)c1cccc(-c2cnc(N[C@@H]3CCCC[C@H]3N[C@H]3CCCN(c4cnc(C(F)(F)F)nc4)C3)o2)c1 [Example 411]	10
COC(=O)Nc1cccc(-c2ccnc(N[C@@H]3CCCC[C@H]3N[C@H]3CCCN(c4ccc(-c5ccccc5)cc4)C3)c2)c1 [Example 516]	17
Cn1nnc(-c2ccc(N3CCC[C@H](N[C@@H]4CCCC[C@H]4Nc4cc(-c5cccc(C(N)=O)c5)ccn4)C3)cc2)n1 [Example 505]	9
C[C@]1(N[C@@H]2CCCC[C@H]2Nc2ncc(-c3cccc(C(N)=O)c3)o2)CCCN(c2ncc(C#N)cn2)C1 [Example 432]	29
NC(=O)c1cccc(-c2ccnc(N[C@@H]3CCCC[C@H]3N[C@H]3CCCN(c4ccc(-n5cncn5)cc4)C3)c2)c1 [Example 512]	650
C[C@]1(N[C@@H]2CCCC[C@H]2Nc2ncc(-c3cccc(C(N)=O)c3)o2)CCCN(c2ccc(C(=O)NC(=O)C3CC3)nc2)C1 [Example 446]	6

Same assay, conditions: human Y4 stable CHO clonal cells, forskolin + IBMX; read-out: NPY4 cAMP HTRF Agonist Assay EC50

EC50 [nM]	SMILES
185	O=[N+]([O-])c1ccc(N2CCC[C@H](N[C@@H]3CCCC[C@H]3Nc3ncc(-c4ccc(C(F)(F)F)cc4)o3)C2)cc1 [Example 7, (1R,2R)—N1-((S)-1-(4-Nitrophenyl)piperidin-3-yl)-N2-(5-(4-(trifluoromethyl)phenyl)oxazol-2-yl)cyclohexane-1,2-diamine]
45	FC(F)(F)Oc1ccc(-c2cnc(N[C@@H]3CCCC[C@H]3N[C@H]3CCCN(c4ccc(C(F)(F)F)cc4)C3)o2)cc1 [Example 71, (1R,2R)—N1-(5-(4-(Trifluoromethoxy)phenyl)oxazol-2-yl)-N2-((S)-1-(4-(trifluoromethyl)phenyl)piperidin-3-yl)cyclohexane-1,2-diamine]
297	N#Cc1ccc(N2CCC[C@H](N[C@@H]3CCCC[C@H]3Nc3nccc(-c4ccc(OC(F)(F)F)cc4)n3)C2)cc1 [Example 59, 4-((S)-3-((1R,2R)-2-(4-(4-(Trifluoromethoxy)phenyl)pyrimidin-2-ylamino)cyclohexylamino)piperidin-1-yl)benzonitrile bis-trifluoroacetate]
911	O=[N+]([O-])c1ccc(N2CC3CCC2[C@@H](N[C@@H]2CCCC[C@H]2Nc2ncc(-c4ccc(OC(F)(F)F)cc4)o2)C3)cc1 (stereo partly drawn) [Example 17, (1R,2R)—N1-((6S)-2-(4-Nitrophenyl)-2-azabicyclo[2.2.2]octan-6-yl)-N2-(5-(4-(trifluoromethoxy)phenyl)oxazol-2-yl)cyclohexane-1,2-diamine]
799	FC(F)(F)Oc1ccc(-c2cnc(N[C@@H]3CCCC[C@H]3N[C@H]3CCCN(c4ccc(-n5ccc(C(F)(F)F)n5)cc4)C3)o2)cc1 [Example 70, (1R,2R)—N1-(5-(4-(Trifluoromethoxy)phenyl)oxazol-2-yl)-N2-((S)-1-(4-(3-(trifluoromethyl)-1H-pyrazol-1-yl)phenyl)piperidin-3-yl)cyclohexane-1,2-diamine bis-trifluoroacetate]
95	N#Cc1ccc(N2CCC[C@H](N[C@@H]3CCCC[C@H]3Nc3cc(-c4ccccc4)ccn3)C2)cc1 [Example 53, 4-((S)-3-((1R,2R)-2-(4-Phenylpyridin-2-ylamino)cyclohexylamino)piperidin-1-yl)benzonitrile bis-trifluoroacetate]
0.4	CCOC(=O)Nc1cccc(-c2cnc(N[C@@H]3CCCC[C@H]3N[C@H]3CCCN(c4ccc(C(F)(F)F)nc4)C3)o2)c1 [Example 102]
18	N#Cc1ccc(N2CCC[C@H](N[C@@H]3CCCC[C@H]3Nc3cc(-c4ccc(OC(F)F)cc4)ccn3)C2)cc1 [Example 43, 4-((S)-3-((1R,2R)-2-(4-(4-(Difluoromethoxy)phenyl)pyridin-2-ylamino)cyclohexylamino)piperidin-1-yl)benzonitrile tris-trifluoroacetate]
4	CCOC(=O)Nc1cccc(-c2cnc(N[C@@H]3CCCC[C@H]3N[C@H]3CCCN(c4cnc(C(F)(F)F)nc4)C3)o2)c1 [Example 107, Ethyl (3-(2-(((1R,2R)-2-(((S)-1-(2-(trifluoromethyl)pyrimidin-5-yl)piperidin-3-yl)amino)cyclohexyl)amino)oxazol-5-yl)phenyl)carbamate]
43	O=[N+]([O-])c1ccc(N2CCC[C@H](N[C@@H]3CCCC[C@H]3Nc3ncc(-c4cccc(OC(F)(F)F)c4)o3)C2)cc1 [Example 22, (1R,2R)—N1-((S)-1-(4-Nitrophenyl)piperidin-3-yl)-N2-(5-(3-(trifluoromethoxy)phenyl)oxazol-2-yl)cyclohexane-1,2-diamine]

Same assay, conditions: second TABLE 1, R2 is Phenyl-CF3; read-out: hY4 CAMP EC50

EC50 [nM]	SMILES
6	C[C@H](O)c1cccc(-c2ccnc(N[C@@H]3CCCC[C@H]3N[C@H]3CCCN(c4ccc(C(F)(F)F)cc4)C3)c2)c1 [Example 167]
1040	Cn1cc(-c2ccnc(N[C@@H]3CCCC[C@H]3N[C@H]3CCCN(c4ccc(C(F)(F)F)cc4)C3)c2)cn1 [Example 188]
726	FC(F)(F)c1ccc(N2CCC[C@H](N[C@@H]3CCCC[C@H]3Nc3cc(-c4ccc5c(c4)CNCC5)ccn3)C2)cc1 [Example 146]

The next lines start with the compound.

SMILES	EC50 [nM]
CN(C)c1cccc(-c2ccnc(N[C@@H]3CCCC[C@H]3N[C@H]3CCCN(c4ccc(C(F)(F)F)cc4)C3)c2)c1 [Example 159]	239
FC(F)(F)c1ccc(N2CCC[C@H](N[C@@H]3CCCC[C@H]3Nc3cc(-c4cccc(N5CCCC5)c4)ccn3)C2)cc1 [Example 164]	104
O=C(Nc1cccc(-c2ccnc(N[C@@H]3CCCC[C@H]3N[C@H]3CCCN(c4ccc(C(F)(F)F)cc4)C3)c2)c1)OCCF [Example 137]	2
OCCc1ccccc1-c1ccnc(N[C@@H]2CCCC[C@H]2N[C@H]2CCCN(c3ccc(C(F)(F)F)cc3)C2)c1 [Example 156]	50
